{
  "source": "patent US20110045032A1",
  "about": "(priority 2001, published 2011)",
  "key": {"[1]": {"test_system": "Intracellular Adenosine in various Rat Tissues", "assay_type": "in vivo", "protocol": "Folinic acid (50 mg/kg) was administered intraperitoneally once daily for fourteen days. […] Hearts were removed from animals and flash frozen in liquid nitrogen with 10 seconds of death. Liver and lungs were removed en bloc and flash frozen with 30 seconds of death. Brain tissue was subsequently dissected."}, "HT-29 SF cells [2]": {"test_system": "HT-29 SF cells", "assay": "Reversal of DHEA-mediated growth inhibition by supplements", "assay_type": "cell-based, human", "conditions": "25 μM DHEA, 48 hours of treatment"}, "HT-29 SF cells [3]": {"test_system": "HT-29 SF cells", "assay": "Reversal of DHEA effect on cell cycle by supplements", "assay_type": "cell-based, human", "conditions": "25 μM DHEA"}, "HT-29 SF cells [4]": {"test_system": "HT-29 SF cells", "assay": "DHEA effect on cell cycle distribution (flow cytometry)", "assay_type": "cell-based, human", "conditions": "25-200 μM, 24-72 hours; time- and dose-dependent", "protocol": "Cells were plated at 10^5/60-mm dish in duplicate. […] Cultures were trypsinized following […] and fixed and stained using a modification of a procedure of Bauer et al., Cancer Res., 46, 3173-3178 (1986). Briefly, cells were collected by centrifugation and resuspended in cold phosphate-buffered saline. Cells were fixed in 70% ethanol, washed, and resuspended in phosphate-buffered saline.\nAfter 24, 48, and 72 hours, cells were harvested, fixed in ethanol, and stained with propidium iodide, and the DNA content/cell was determined by flow cytometric analysis. The percentage of cells in G1, S, and G2M phases was calculated using the Cellfit cell cycle analysis program. S phase is marked by a quadrangle for clarity. Representative histograms from duplicate determinations are shown. The experiment was repeated three times."}, "HT-29 SF cells [5]": {"test_system": "HT-29 SF cells", "assay": "DHEA effect on cell growth (Coulter counter)", "experimental": "Cell cultures, HT-29 SF cells, which represent a subline of HY-29 cells (ATCC, Rockville, Md.) and are adapted for growth in completely defined serum-free PC-1 medium (Ventrex, Portland, Me.), were obtained. Stock cultures were maintained in this medium at 37° (in a humidified atmosphere containing 5% CO2)."}, "mast cell": {"test_system": "mast cell", "conditions": "cell incubation for 5 min; cited from earlier work"}, "[6]": {"test_system": "adult acute asthma exacerbation", "conditions": "in conjunction with beta 2-agonists; adult and pediatric studies; cited from earlier work"}, "[7]": {"test_system": "patients with mild-to-moderate asthma", "conditions": "cited from earlier work"}, "[8]": {"test_system": "dust mite-sensitized rabbits", "assay": "Adenosine sensitivity PC40 (Example 26 animals)", "conditions": "5 animals"}, "[9]": {"test_system": "dust mite-sensitized rabbits", "assay": "Adenosine sensitivity PC40 (Example 25 animals)", "conditions": "4 animals"}, "[10]": {"test_system": "asthmatic and chronic obstructive pulmonary disease (COPD) patients", "conditions": "cited from earlier work"}, "[11]": {"molecular_target": "T1, M(1)-muscarinic receptors (Homo sapiens, UniProt P11229)", "T1 sequence (P11229 1-460)": "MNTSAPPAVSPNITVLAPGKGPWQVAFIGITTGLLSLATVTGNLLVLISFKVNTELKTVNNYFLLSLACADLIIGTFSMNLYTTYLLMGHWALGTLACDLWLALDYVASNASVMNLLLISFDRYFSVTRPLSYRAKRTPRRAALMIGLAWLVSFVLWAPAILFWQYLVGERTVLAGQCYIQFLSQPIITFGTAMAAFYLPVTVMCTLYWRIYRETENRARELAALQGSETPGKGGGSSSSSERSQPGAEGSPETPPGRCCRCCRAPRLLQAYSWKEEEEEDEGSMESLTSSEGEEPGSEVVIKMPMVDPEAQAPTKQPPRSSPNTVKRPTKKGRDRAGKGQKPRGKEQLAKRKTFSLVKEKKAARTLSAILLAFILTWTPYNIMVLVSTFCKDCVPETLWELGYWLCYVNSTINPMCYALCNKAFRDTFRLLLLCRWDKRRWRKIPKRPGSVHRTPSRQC", "conditions": "cited from earlier work"}, "muscarinic receptors": {"test_system": "muscarinic receptors", "conditions": "cited from earlier work"}, "mast cells": {"test_system": "mast cells", "conditions": "cited from earlier work"}},
  "data": [
    {"smiles": "Nc1nc(=O)c2c([nH]1)NCC(CNc1ccc(C(=O)N[C@@H](CCC(=O)O)C(=O)O)cc1)N2C=O", "note": "(mixture of isomers) [Folinic Acid, Folinic acid]", "values": [
      {"measurement": "adenosine levels, folinic acid administered alone", "setting": "[1]; all organs studied", "value": "increase in adenosine levels"},
      {"measurement": "effect of co-administration of folinic acid on steroid-mediated adenosine depletion", "setting": "[1]; co-administered with DHEA or methyltestosterone", "value": "completely abrogated"}
    ]},
    {"smiles": "CC(C)CCC[C@@H](C)[C@H]1CC[C@H]2[C@@H]3CC=C4C[C@@H](O)CC[C@]4(C)[C@H]3CC[C@]12C", "note": "[CH, cholesterol]", "values": [
      {"measurement": "reversal of DHEA-induced growth inhibition by supplement", "setting": "HT-29 SF cells [2]", "value": "no such effect"},
      {"measurement": "prevention of DHEA-induced S phase depletion", "setting": "HT-29 SF cells [3]; 48 hours", "value": "very little effect"}
    ]},
    {"smiles": "C[C@]12CC[C@H](O)CC1=CC[C@@H]1[C@@H]2CC[C@]2(C)C(=O)CC[C@@H]12", "note": "[DHEA, dehydroepiandrosterone]", "values": [
      {"measurement": "cell cycle effect (overall)", "setting": "HT-29 SF cells [4]", "value": "G1 block"},
      {"measurement": "inhibition of growth", "setting": "HT-29 SF cells [5]; 0-200 μM, 0-72 hours", "value": "time- and dose-dependent inhibition of growth"},
      {"measurement": "exposure time after which cell number reduced compared to controls", "setting": "HT-29 SF cells [5]; 25 or 50 μM DHEA", "value": 48, "unit": "h"}
    ]},
    {"smiles": "CC(C)[N+]1(C)[C@@H]2CC[C@H]1C[C@@H](OC(=O)C(CO)c1ccccc1)C2", "note": "(stereo partly drawn) [IB, Ipratropium Bromide]", "values": [
      {"measurement": "inhibition of histamine release", "setting": "mast cell", "value": "no distinction"},
      {"measurement": "severe adverse effects attributable to ipratropium", "setting": "[6]", "value": "Neither the adult nor the pediatric studies reported severe adverse effects"}
    ]},
    {"smiles": "C[C@@](O)(CCO)CC(=O)O", "note": "[MVA, mevalonic acid]", "values": [
      {"measurement": "reversal of DHEA-induced growth inhibition by supplement", "setting": "HT-29 SF cells [2]", "value": "partially overcome"},
      {"measurement": "prevention of DHEA-induced S phase depletion", "setting": "HT-29 SF cells [3]; 48 hours", "value": "partially prevented"},
      {"measurement": "prevention of DHEA-induced S phase depletion", "setting": "HT-29 SF cells [3]; 72 hours", "value": "not"}
    ]},
    {"smiles": "CC(C)=CCC/C(C)=C/CC/C(C)=C/CC/C=C(\\C)CC/C=C(\\C)CCC=C(C)C", "note": "[SQ, squalene]", "values": [
      {"measurement": "reversal of DHEA-induced growth inhibition by supplement", "setting": "HT-29 SF cells [2]", "value": "no such effect"}
    ]},
    {"smiles": "CC(c1cc2ccccc2s1)N(O)C(N)=O", "note": "(stereo not drawn) [Zyflo]", "values": [
      {"measurement": "beta-agonist puffs per day lower than baseline", "setting": "[7]; at the end of the study", "value": 31, "unit": "%"},
      {"measurement": "number of beta-agonist puffs needed per day", "setting": "[7]; at the end of the study", "value": 1.77, "unit": "puffs"},
      {"measurement": "patients requiring steroid rescue", "setting": "[7]; compared with 18.7% placebo", "value": 7, "unit": "%"},
      {"measurement": "reduction in patients requiring steroid rescue vs placebo", "setting": "[7]; human, in vivo", "value": 62, "unit": "%"}
    ]},
    {"smiles": "Nc1ncnc2c1ncn2[C@@H]1O[C@H](CO)[C@@H](O)[C@H]1O", "note": "[adenosine]", "values": [
      {"measurement": "PC40 for adenosine, mean", "setting": "[8]", "value": 4.5, "unit": "mg/mL"},
      {"measurement": "PC40 for adenosine, mean", "setting": "[9]", "value": 2.5, "unit": "mg/mL"}
    ]},
    {"smiles": "CN1[C@@H]2CC[C@H]1C[C@@H](OC(=O)C(CO)c1ccccc1)C2", "note": "(stereo partly drawn) [atropine]", "values": [
      {"measurement": "inhibition of histamine release", "setting": "mast cell", "value": "no distinction"}
    ]},
    {"smiles": "C[N+]1(C)[C@@H]2C[C@@H](OC(=O)C(O)(c3cccs3)c3cccs3)C[C@H]1[C@@H]1O[C@@H]12", "note": "[tiotropium bromide, Tiotropium bromide]", "values": [
      {"measurement": "duration of bronchodilator and bronchoprotective effect", "setting": "[10]; Phase II, single inhaled doses", "value": "over 24 h"},
      {"measurement": "patients with dryness of the mouth", "setting": "[10]; human, in vivo", "value": "approximately 10%"},
      {"measurement": "duration of stable bronchodilation", "setting": "[10]; phase III clinical trials, inhaled once daily", "value": "more than 24 hours"},
      {"measurement": "dissociation from receptor", "setting": "[11]", "value": "dissociates very slowly"},
      {"measurement": "affinity for muscarinic receptors", "setting": "muscarinic receptors", "value": "high affinity"}
    ]},
    {"smiles": "CCC(CO)(C(=O)OC1C[C@H]2CC[C@@H](C1)[N+]2(C)C)c1ccccc1.[I-]", "note": "(stereo partly drawn) [troventol]", "values": [
      {"measurement": "inhibition of histamine release", "setting": "mast cell", "value": 47, "unit": "%"},
      {"measurement": "decrease in speed of passive calcium ion uptake", "setting": "mast cells", "value": 56.3, "unit": "%"}
    ]}
  ]
}
